One series deals with HO-1. As to the kind of experiment: HO-1 knock-down in vivo by siRNA, immunoblot of peritoneal cells. Conditions: siRNA 2 mg/kg i.p. 3×, hemin on intervening days. Details: species or system mice. As for the experimental part: (§1) (A,B) Peritoneal cells were isolated from hemin-treated mice that were also injected intraperitoneally on alternate days with saline (−), HO-1 siRNA (construct #1 and #2), or scramble control (Sc) siRNA. The peritoneal cells were then used to examine HO-1 and HO-2 levels by immunoblotting. (C,D) Peritoneal cells were harvested from hemin/construct #2 HO-1 siRNA or hemin/scrambled siRNA injected mice then transferred into naive recipient littermates followed by immediate initiation of CDD feeding. At 2.5 d of CDD feeding, pancreata were collected for histologic scoring. Data for histology score are presented as mean±SD (n=5-6/group), and are 6.4±1.7 (scrambled) and 12.7±4.5 (HO-1 siRNA). (E) Pancreata from panels C,D were double stained using antibodies to F4/80 and HO-1 (scale bar=20 μm).
HO-1 siRNA and hemin pretreated cell transfer. Mice were injected i.p. every other day (3 total injections) with either saline or with two HO-1 siRNA constructs (2 mg/kg body weight), or with a scrambled siRNA sequence. Hemin was injected in the intervening days (an additional 3 injections). After 7 days, peritoneal cells were harvested and analyzed by immunoblotting using antibodies to HO-1/2. […] The siRNAs were synthesized by Dharmacon Research Inc. (Lafayette, Colo.) and tested previously. Zhang, X., Shan, P., Jiang, D., Noble, P. W., Abraham, N. G., Kappas, A., and Lee, P. J. 2004. […]

For another series, the system named is CDD-induced pancreatitis. As to the kind of experiment: Transfer of hemin/siRNA pretreated peritoneal cells into CDD-fed mice, histologic scoring. In kind it is in vivo. Conditions: recipients of peritoneal cells from hemin + siRNA injected mice; 2.5 d CDD; mean±SD, n=5-6/group. The method, then: as §1, with “(E) Pancreata from panels C,D were double stained using antibodies to F4/80 and HO-1 (scale bar=20 μm).” left out
Hemin pretreated peritoneal cell transfer into CDD-fed mice. […] Mice were sacrificed after 2.5 d of CDD feeding, followed by isolation of the pancreata.(for histological and fluorescence staining) and blood. […] The severity of pancreatitis was scored using established histological criteria that assigned individual numerical scores (1=mild, 2=moderate, 3=severe) to edema, inflammation, hemorrhage; and alternate scores for parenchymal necrosis (3=focal, 5=sublobular, and 7=lobular). […]
HO-1 siRNA and hemin pretreated cell transfer. […] After 7 days, peritoneal cells were harvested and analyzed by immunoblotting using antibodies to HO-1/2. […]

d = 2'-deoxy (DNA); r = 2'-OH (RNA)

For “HO-1 siRNA: HO-1 siRNA construct #2: 5′-GCCACACAGCACUAUGUAAdTdT-3′ (sense), 5′-UUACAUAGUGCUGUGUGGCdTdT-3′ (antisense) (sense GCCACACAGCACUAUGUAATT; antisense UUACAUAGUGCUGUGUGGCTT; chemistry not fully specified)”, in the series on HO-1, the “HO-1 level in peritoneal cells” value is “significant inhibition of HO-1”. Also, the histology score in the series with CDD-induced pancreatitis worked out at 12.7±4.5.

For “scrambled: nonspecific siRNA scrambled duplex: 5′-GCGCGCUUUGUAGGAUUCGdTdT-3′ (sense), 5′-CGAAUCCUACAAAGCGCGCdTdT-3′ (antisense) (sense GCGCGCUUUGUAGGAUUCGTT; antisense CGAAUCCUACAAAGCGCGCTT; sugars from the 5' end r19 d2, backbone not given here)”, the histology score in the series on CDD-induced pancreatitis is recorded as 6.4±1.7.

The record behind these values is patent US7745402B2, “Method of treating pancreatitis” (Lundbeck Inc., priority 2005, dated 2010).
